Measured values from patent US5427999A, “Amine adducts as corrosion inhibitors” (Exxon Chemical Patents Inc., priority 1991, dated 1995).

Experiments:
Skeletonema costatum [1] = test: Marine phytoplankton inhibition of growth rate; type: cell-based, Skeletonema costatum (Greville) Cleve, Clone Skel-5; conditions: 72 h, control compound, measured in this test, read-out: normal growth rate, measured in this test
Description: Growth inhibition tests have also been carried out to assess the impact of the compounds on the, marine algae Skeletonema Costatum. This is a test which is becoming required by some offshore authorities, and is therefore of particular interest when considering the practical applications of the compounds.
Test organisms: Skeletonema costatum (Greville) Cleve, Clone Skel-5.
Incubation: 3 days at 14° C., in light/darkness cycles of 14 hrs/10 hrs.
Test samples: Aliquots of each sample are weighed into phytoplankton medium and extracted; moderate shaking for 20 hrs at 14° C.
Control compound: Na-dodecyl-sulphate. Normally a concentration of 1.3 mg/kg gives 30 to 70% of normal growth rate. Measured in this test: 30% to 55%.
Results were calculated as the concentration of compound required to inhibit 50% growth of algae during three days of exposure, termed EC50, given in mg/kg (ppm). The interval EC20 to EC80 is also given.

Skeletonema costatum [2] = conditions: normally a concentration of 1.3 mg/kg, 4320 min; cited from earlier work

Question: With CCCCCCCCCCCCOS(=O)(=O)O [Na-dodecyl-sulphate] as the molecule, how does the activity at 1.3 mg/kg (Skeletonema costatum [1]) read?
Answer: 30 to 55%

Question: And the “normal growth rate, normally given by control compound” value (Skeletonema costatum [2])?
Answer: 30 to 70%
